In ChEMBL document CHEMBL1201862, “PubChem BioAssay data set” (2004):
Calls of active or inactive are those of the source.

Tests used:
[1] = target: Protein Rev (Human immunodeficiency virus type 1 group M subtype B (isolate HXB2)(HIV-1), UniProt P04618); assay: blockers of HIV Rev/RRE RNA complex – biochemical, fluorescence polarization, HIV-1, dose response (AID 434976); design: species or system Human immunodeficiency virus 1
[2] = test system: Streptococcus sp. 'group A'; assay: Streptococcus pyogenes SK(-)GAS viability under kanamycin – luminescence, BacTiterGlo, confirmation, counter-screen for streptokinase expression inhibitor project, dose response (AID 1900); type: functional, organism-based
[3] = target: T1, Bcl-2-related protein A1 (Mus musculus, UniProt Q07440); assay: displacement of Bid BH3 peptide from Bfl-1 – biochemical, fluorescence polarization, FITC-Bid, mouse, primary screen (AID 432)
T1 sequence (Q07440 whole entry): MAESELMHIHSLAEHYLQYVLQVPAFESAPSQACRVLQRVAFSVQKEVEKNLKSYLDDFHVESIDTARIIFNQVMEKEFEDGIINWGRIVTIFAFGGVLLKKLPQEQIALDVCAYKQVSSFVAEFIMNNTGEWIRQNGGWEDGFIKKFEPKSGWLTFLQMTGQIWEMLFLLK

[4] = alpha-synuclein stem-loop luciferase translation blockers – H4 neuroglioma cells, luminescence, confirmation (AID 1988); type: functional, cell-based
[5] = viability of HCT116 lacking mutant beta-catenin – cell-based, human colon tumor, dose response (AID 1045); type: functional;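 also: HCT116 colon tumor cells with beta catenin knocked out; cells exposed to compound for 60 hours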
[6] = blockers of HIV-1 envelope-mediated cell-cell fusion – cherry-pick, dose response (AID 652057); type: functional, cell-based
[7] = viability loss in CEM21 cells – cell-based, CellTiter-Glo luminescence, cherry-picked, cytotoxicity control for viral fusion inhibitor project, dose response (AID 652042); type: functional;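 also: potency for signal decrease meaning cytotoxicity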
[8] = target: T2, 1-phosphatidylinositol 4,5-bisphosphate phosphodiesterase gamma-1 (Homo sapiens, UniProt P19174); assay: Counterscreen for inhibitors of phospholipase C isozymes (PLC-B3): Fluorescence-based biochemical high throughput dose response assay to identify inhibitors of phospholipase C isozymes (PLC-gamma1).
T2 sequence (P19174 whole entry): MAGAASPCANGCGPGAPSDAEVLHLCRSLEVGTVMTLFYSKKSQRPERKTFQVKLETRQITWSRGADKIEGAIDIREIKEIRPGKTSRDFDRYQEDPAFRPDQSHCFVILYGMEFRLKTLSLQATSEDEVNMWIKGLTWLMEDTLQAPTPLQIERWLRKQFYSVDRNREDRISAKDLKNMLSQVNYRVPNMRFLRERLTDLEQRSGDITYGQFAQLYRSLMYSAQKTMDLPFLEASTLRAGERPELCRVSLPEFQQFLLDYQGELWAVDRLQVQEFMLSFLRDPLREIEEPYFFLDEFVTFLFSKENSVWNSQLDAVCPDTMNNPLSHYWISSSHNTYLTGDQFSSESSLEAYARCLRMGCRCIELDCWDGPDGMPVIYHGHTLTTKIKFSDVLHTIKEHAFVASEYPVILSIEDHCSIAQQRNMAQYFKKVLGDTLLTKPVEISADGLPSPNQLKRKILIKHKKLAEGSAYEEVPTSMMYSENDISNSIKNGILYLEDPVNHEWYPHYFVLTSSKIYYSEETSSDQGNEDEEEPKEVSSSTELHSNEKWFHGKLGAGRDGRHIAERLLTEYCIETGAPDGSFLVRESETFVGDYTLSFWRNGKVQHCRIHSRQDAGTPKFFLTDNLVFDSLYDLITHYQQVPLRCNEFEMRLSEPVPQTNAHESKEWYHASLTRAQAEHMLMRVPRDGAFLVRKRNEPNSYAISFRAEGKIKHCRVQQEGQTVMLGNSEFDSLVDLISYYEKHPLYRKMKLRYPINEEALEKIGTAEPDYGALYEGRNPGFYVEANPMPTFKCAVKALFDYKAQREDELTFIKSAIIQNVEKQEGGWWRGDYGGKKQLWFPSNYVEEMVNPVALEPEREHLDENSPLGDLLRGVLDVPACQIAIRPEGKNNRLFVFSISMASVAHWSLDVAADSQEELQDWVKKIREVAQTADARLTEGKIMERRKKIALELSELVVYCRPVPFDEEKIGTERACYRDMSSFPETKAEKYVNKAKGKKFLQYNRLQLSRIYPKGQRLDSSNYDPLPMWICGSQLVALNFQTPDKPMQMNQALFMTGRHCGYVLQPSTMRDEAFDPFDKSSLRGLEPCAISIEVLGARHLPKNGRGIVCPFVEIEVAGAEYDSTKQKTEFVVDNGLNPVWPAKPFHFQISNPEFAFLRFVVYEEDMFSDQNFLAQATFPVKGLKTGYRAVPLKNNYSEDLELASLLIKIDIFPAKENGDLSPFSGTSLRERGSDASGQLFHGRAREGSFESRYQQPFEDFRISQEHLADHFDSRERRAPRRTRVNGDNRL

[9] = target: Ribosomal protein S6 kinase alpha-3 (Homo sapiens, UniProt P51812); type: functional;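 also: measured within a kinome-wide profiling panel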
[10] = target: ALK tyrosine kinase receptor (Homo sapiens, UniProt Q9UM73); type: functional;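 also: ALK tested as one member of a kinase panel screen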
[11] = target: Serine/threonine-protein kinase 17A (Homo sapiens, UniProt Q9UEE5); type: functional
[12] = target: Tyrosine-protein kinase Lck (Homo sapiens, UniProt P06239); type: functional;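 also: lck was assayed as one member of a kinase panel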
[13] = target: Activin receptor type-1 (Homo sapiens, UniProt Q04771); assay: Navigating the Kinome. Panel member name: ACVR1; type: functional
[14] = target: Serine/threonine-protein kinase TAO1 (Homo sapiens, UniProt Q7L7X3); type: functional
[15] = target: High affinity nerve growth factor receptor (Homo sapiens, UniProt P04629); type: functional;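 also: NTRK1 tested as one member of a kinome-wide profiling panel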
[16] = target: G protein-coupled receptor kinase 5 (Homo sapiens, UniProt P34947); assay: Navigating the Kinome. Panel member name: GPRK5; type: functional
[17] = target: Misshapen-like kinase 1 (Homo sapiens, UniProt Q8N4C8); type: functional;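 also: kinome panel screen with MINK as the panel member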
[18] = target: Interleukin-1 receptor-associated kinase 1 (Homo sapiens, UniProt P51617); type: functional;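 also: IRAK1 tested as one member of a kinome panel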
[19] = target: Interleukin-1 receptor-associated kinase 4 (Homo sapiens, UniProt Q9NWZ3); type: functional
[20] = target: Vascular endothelial growth factor receptor 3 (Homo sapiens, UniProt P35916); type: functional;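 also: value from a kinome-wide profiling panel, with FLT4 as the panel member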
[21] = target: Inhibitor of nuclear factor kappa-B kinase subunit epsilon (Homo sapiens, UniProt Q14164); assay: Navigating the Kinome. Panel member name: IKBKE; type: functional
[22] = target: Leukocyte tyrosine kinase receptor (Homo sapiens, UniProt P29376); assay: Navigating the Kinome. Panel member name: LTK; type: functional
[23] = target: Ribosomal protein S6 kinase alpha-5 (Homo sapiens, UniProt O75582); type: functional
[24] = target: Tyrosine-protein kinase Fer (Homo sapiens, UniProt P16591); type: functional;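 also: FER tested as one member of a kinome panel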
Chain of Tyrosine-protein kinase Fer (P16591 whole entry): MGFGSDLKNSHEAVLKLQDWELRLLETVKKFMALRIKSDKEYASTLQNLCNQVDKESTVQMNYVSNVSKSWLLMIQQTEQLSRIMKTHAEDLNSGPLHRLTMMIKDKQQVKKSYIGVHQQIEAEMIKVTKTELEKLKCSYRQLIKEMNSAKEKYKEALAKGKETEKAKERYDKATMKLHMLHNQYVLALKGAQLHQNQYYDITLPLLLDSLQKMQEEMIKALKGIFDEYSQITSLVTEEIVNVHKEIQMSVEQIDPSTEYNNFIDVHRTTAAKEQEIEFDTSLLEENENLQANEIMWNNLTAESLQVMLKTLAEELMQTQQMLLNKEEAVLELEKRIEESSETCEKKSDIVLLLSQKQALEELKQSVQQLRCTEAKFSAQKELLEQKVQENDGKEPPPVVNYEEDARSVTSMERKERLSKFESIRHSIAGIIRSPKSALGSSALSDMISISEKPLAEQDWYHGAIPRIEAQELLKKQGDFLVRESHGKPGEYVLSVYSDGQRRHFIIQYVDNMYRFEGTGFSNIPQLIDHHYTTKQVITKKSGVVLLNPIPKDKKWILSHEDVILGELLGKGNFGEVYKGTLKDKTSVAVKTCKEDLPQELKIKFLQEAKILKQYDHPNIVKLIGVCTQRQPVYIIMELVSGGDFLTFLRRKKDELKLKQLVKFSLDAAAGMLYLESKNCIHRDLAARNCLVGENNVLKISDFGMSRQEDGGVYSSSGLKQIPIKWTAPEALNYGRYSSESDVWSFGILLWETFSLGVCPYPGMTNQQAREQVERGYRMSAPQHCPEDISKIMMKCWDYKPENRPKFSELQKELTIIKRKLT

Chain of High affinity nerve growth factor receptor (P04629 whole entry): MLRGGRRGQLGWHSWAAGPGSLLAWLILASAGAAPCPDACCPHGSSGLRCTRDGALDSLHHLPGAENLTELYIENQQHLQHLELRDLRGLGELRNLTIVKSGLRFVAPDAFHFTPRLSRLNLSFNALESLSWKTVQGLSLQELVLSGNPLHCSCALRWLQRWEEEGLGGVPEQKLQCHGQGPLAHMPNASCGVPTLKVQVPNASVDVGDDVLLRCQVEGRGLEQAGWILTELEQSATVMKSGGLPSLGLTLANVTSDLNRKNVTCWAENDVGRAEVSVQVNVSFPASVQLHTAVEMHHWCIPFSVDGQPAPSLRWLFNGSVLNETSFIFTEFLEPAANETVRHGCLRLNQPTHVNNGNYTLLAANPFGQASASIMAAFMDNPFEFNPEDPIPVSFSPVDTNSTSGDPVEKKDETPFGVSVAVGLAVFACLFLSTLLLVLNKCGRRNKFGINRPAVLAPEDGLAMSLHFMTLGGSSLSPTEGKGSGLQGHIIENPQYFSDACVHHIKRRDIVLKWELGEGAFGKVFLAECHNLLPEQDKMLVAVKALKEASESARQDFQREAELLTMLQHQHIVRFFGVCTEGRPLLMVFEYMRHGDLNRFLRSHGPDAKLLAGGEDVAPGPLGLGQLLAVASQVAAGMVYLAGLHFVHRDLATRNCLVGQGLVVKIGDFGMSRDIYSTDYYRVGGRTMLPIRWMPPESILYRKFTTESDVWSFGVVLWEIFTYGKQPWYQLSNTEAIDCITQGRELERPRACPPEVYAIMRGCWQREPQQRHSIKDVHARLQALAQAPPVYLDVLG
Chain of Vascular endothelial growth factor receptor 3 (P35916 whole entry): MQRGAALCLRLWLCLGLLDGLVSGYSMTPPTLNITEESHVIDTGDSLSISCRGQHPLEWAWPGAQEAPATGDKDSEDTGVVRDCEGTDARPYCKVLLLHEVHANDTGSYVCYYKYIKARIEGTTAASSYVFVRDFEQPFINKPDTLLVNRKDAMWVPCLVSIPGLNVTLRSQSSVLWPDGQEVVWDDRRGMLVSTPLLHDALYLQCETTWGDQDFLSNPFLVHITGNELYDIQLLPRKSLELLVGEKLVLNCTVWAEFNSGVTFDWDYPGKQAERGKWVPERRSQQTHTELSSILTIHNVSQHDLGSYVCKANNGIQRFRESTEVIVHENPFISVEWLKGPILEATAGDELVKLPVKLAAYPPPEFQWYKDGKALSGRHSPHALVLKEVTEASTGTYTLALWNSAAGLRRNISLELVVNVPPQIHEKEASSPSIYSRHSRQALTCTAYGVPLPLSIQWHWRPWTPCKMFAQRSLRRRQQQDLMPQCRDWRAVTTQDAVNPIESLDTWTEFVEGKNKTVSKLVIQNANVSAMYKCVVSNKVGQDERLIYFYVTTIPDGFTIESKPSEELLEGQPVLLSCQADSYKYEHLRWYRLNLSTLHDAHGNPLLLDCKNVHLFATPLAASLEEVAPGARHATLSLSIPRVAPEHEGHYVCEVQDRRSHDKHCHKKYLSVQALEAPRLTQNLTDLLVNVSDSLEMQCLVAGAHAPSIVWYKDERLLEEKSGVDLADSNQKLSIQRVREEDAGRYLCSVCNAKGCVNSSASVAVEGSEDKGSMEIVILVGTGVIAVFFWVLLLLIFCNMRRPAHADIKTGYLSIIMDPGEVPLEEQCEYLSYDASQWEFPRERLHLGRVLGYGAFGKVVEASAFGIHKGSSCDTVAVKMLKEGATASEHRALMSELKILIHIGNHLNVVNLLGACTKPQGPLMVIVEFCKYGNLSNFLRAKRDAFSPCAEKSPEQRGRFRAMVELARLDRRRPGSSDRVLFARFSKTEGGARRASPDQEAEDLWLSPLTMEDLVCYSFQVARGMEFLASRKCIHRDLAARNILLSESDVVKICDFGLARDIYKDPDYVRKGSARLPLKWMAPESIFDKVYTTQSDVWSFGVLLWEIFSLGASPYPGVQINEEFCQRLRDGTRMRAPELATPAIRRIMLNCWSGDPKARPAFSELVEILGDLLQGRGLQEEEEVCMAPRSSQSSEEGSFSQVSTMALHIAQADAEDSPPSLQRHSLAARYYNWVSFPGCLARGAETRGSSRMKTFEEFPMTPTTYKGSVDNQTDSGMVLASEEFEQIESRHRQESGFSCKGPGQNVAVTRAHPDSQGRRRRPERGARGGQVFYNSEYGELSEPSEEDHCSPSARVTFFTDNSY
Chain of Misshapen-like kinase 1 (Q8N4C8 whole entry): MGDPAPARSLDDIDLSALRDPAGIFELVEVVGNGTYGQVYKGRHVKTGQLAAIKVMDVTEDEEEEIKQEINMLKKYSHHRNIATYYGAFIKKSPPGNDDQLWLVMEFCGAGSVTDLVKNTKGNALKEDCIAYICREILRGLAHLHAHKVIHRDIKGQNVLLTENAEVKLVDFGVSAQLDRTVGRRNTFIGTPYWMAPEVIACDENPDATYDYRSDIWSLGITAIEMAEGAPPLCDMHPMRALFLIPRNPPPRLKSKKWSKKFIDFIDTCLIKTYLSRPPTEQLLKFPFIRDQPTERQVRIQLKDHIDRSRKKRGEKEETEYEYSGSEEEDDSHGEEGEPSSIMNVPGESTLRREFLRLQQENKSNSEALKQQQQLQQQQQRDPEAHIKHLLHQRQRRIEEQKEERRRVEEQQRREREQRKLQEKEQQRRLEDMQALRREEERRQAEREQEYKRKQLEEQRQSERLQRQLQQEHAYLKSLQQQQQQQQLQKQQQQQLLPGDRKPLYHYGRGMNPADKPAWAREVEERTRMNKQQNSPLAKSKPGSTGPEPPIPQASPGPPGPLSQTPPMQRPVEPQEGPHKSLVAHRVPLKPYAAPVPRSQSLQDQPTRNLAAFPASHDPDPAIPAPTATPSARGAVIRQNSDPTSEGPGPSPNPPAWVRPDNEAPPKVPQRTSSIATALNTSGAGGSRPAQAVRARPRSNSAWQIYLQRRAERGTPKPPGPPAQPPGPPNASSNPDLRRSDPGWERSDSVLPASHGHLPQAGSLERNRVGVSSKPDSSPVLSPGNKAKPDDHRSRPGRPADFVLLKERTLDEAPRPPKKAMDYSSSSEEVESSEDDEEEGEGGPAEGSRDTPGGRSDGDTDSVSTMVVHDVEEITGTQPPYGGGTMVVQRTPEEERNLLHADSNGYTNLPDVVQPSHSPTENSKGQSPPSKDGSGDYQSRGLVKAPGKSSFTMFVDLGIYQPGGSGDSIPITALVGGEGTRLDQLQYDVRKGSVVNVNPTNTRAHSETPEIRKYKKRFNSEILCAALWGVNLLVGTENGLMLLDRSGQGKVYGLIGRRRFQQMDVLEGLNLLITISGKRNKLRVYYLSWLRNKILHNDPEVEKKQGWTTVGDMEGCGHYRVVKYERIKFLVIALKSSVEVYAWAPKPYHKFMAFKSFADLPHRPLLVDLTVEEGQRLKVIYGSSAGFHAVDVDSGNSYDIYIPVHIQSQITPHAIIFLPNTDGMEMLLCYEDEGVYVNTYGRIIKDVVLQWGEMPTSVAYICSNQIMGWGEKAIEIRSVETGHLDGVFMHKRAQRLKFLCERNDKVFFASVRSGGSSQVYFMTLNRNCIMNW
Chain of Ribosomal protein S6 kinase alpha-3 (P51812 whole entry): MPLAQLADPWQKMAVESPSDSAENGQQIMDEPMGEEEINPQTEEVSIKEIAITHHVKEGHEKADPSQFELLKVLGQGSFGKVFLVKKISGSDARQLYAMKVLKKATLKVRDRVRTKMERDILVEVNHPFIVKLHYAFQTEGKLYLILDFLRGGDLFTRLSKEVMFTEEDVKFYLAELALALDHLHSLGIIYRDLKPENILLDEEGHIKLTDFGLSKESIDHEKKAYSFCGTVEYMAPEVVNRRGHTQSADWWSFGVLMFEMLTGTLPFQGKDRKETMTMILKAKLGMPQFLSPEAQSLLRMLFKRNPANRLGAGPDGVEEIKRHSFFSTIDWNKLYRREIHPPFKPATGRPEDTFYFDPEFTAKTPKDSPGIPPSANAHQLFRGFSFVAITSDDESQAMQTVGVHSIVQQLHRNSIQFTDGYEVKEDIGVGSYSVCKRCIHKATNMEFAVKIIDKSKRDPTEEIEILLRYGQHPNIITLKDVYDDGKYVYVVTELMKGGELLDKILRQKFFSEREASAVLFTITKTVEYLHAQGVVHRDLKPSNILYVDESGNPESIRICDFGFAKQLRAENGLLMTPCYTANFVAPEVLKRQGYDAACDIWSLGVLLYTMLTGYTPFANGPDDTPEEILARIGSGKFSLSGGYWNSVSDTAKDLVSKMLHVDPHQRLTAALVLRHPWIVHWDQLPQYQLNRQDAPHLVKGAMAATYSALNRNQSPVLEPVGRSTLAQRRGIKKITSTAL

O=C(O)c1ccc2c3c(ncnc13)-c1ccccc1C2=O
IC50 [1]: 9.78 µM (active)
EC50 [2]: 6.43 µM (active)
IC50 [3]: > 100 µM (not active)
EC50 [4]: 2.45 µM (active)
EC50 [5]: 13.4 µM (active)

CCOC(=O)c1c2c(n(Cc3ccccc3)c1C)C(=O)C(=O)c1ccccc1-2
AC50 [6]: 6.28 µM (active)
AC50 [7]: 5.84 µM (active)
IC50 [8]: 28.3 µM (inactive)

Cc1ccc2nccc(NC(=O)Nc3cccc(C(F)(F)F)n3)c2c1
Ki [9]: > 5.01 µM (inactive)
Ki [10]: > 3.98 µM (inactive)
Ki [11]: > 3.98 µM (inactive)
Ki [12]: > 2.51 µM (inactive)
Ki [13]: 0.316 µM (active)
Ki [14]: > 6.31 µM (inactive)
Ki [15]: > 2.51 µM (inactive)
Ki [16]: > 3.98 µM (inactive)
Ki [17]: 0.2 µM (active)
Ki [18]: > 7.94 µM (inactive)
Ki [19]: > 10 µM (inactive)
Ki [20]: 1 µM (active)
Ki [21]: > 3.16 µM (inactive)
Ki [22]: > 3.16 µM (inactive)

COc1cc2c(cc1F)C(c1ccccc1Cl)=Nc1c(n[nH]c1C)N2 [RG-1530]
Ki [23]: > 2 µM (inactive)
Ki [24]: 0.126 µM (active)
